Several values for one entry are separate records, joined by “and”; a condition that tells them apart may be missing. Equal entries are not always repeated. Inconclusive results and toxic doses are left out. Rule as the data show it: active = T/C of 150% or more; inactive = T/C below 125%.
System: L1210 leukemia ip in BDF1 mice, survival T/C
Experiment: NCI In Vivo Anticancer Drug Screen. Data for tumor model L1210 Leukemia (intraperitoneal) in B6D2F1 (BDF1) mice
Settings: endpoint: mean survival time, higher = longer survival
Summary of the method: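 Mice bearing the transplanted tumor received compound or vehicle. Survival of the treated group was divided by that of the vehicle-treated control group to give the ratio.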

[1] = dose: 100.0 mg/kg/injection, schedule: Q01DX009 (ip), vehicle: saline
[2] = dose: 100.0 mg/kg/injection, schedule: Q04DX003 (ip), vehicle: saline
[3] = dose: 200.0 mg/kg/injection, schedule: Q01DX009 (ip), vehicle: saline
[4] = dose: 200.0 mg/kg/injection, schedule: Q04DX003 (ip), vehicle: saline
[5] = dose: 400.0 mg/kg/injection, schedule: Q04DX003 (ip), vehicle: saline
[6] = dose: 100.0 mg/kg/injection, schedule: Q04DX002 (ip), vehicle: saline with Tween-80
[7] = dose: 200.0 mg/kg/injection, schedule: Q04DX002 (ip), vehicle: saline with Tween-80
[8] = dose: 100.0 mg/kg/injection, schedule: Q01DX001 (ip), vehicle: Klucel (hydroxypropylcellulose) (HPC)
[9] = dose: 100.0 mg/kg/injection, schedule: Q04DX003 (ip), vehicle: Klucel (hydroxypropylcellulose) (HPC)
[10] = dose: 200.0 mg/kg/injection, schedule: Q01DX001 (ip), vehicle: Klucel (hydroxypropylcellulose) (HPC)
[11] = dose: 400.0 mg/kg/injection, schedule: Q04DX003 (ip), vehicle: Klucel (hydroxypropylcellulose) (HPC)
[12] = dose: 100.0 mg/kg/injection, schedule: Q01DX001 (ip), vehicle: saline
[13] = dose: 200.0 mg/kg/injection, schedule: Q01DX001 (ip), vehicle: saline
[14] = dose: 200.0 mg/kg/injection, schedule: Q04DX003 (ip), vehicle: Klucel (hydroxypropylcellulose) (HPC)
[15] = dose: 400.0 mg/kg/injection, schedule: Q01DX001 (ip), vehicle: saline
[16] = dose: 100.0 mg/kg/injection, schedule: Q01DX001 (ip), vehicle: carboxymethylcellulose (CMC)
[17] = dose: 200.0 mg/kg/injection, schedule: Q01DX001 (ip), vehicle: carboxymethylcellulose (CMC)
[18] = dose: 400.0 mg/kg/injection, schedule: Q01DX001 (ip), vehicle: carboxymethylcellulose (CMC)

Measured: T/C

CCC1C(=O)OC2(CO)C(=O)N(C)CCC12 (stereo not given)
inactive: dose: 15.6 mg/kg/injection, schedule: Q01DX001 (ip), vehicle: saline 103 % of control | dose: 31.3 mg/kg/injection, schedule: Q01DX001 (ip), vehicle: saline 103 % of control | dose: 62.5 mg/kg/injection, schedule: Q01DX001 (ip), vehicle: saline 91 % of control | dose: 125.0 mg/kg/injection, schedule: Q01DX001 (ip), vehicle: saline 94 % of control

CC(C)C1NC(=O)NC1=O (stereo not given)
inactive: [1] 98 % of control | [2] 103 % of control | [3] 105 % of control | [4] 101 % of control | dose: 400.0 mg/kg/injection, schedule: Q01DX009 (ip), vehicle: saline 103 % of control | [5] 97 % of control

C1CCC2C(C1)CCCC2CCC1CCCC2CCCCC21 (stereo not given)
inactive: dose: 50.0 mg/kg/injection, schedule: Q04DX002 (ip), vehicle: saline with Tween-80 95 % of control | [6] 92 % of control | [7] 89 % of control | dose: 400.0 mg/kg/injection, schedule: Q04DX002 (ip), vehicle: saline with Tween-80 100 % of control

CCOC(=O)CCc1c(C)[nH]c(C(=O)OCC)c1C
inactive: [8] 98 % of control | [9] 92 % of control | [10] 97 % of control | dose: 400.0 mg/kg/injection, schedule: Q01DX001 (ip), vehicle: Klucel (hydroxypropylcellulose) (HPC) 97 % of control | [11] 108 % of control

CC1(C(=O)O)NC(C(=O)O)CS1 (stereo not given)
inactive: dose: 5.0 mg/kg/injection, schedule: Q01DX001 (ip), vehicle: saline 96 % of control | dose: 10.0 mg/kg/injection, schedule: Q01DX001 (ip), vehicle: saline 108 % of control | dose: 20.0 mg/kg/injection, schedule: Q01DX001 (ip), vehicle: saline 104 % of control | dose: 40.0 mg/kg/injection, schedule: Q01DX001 (ip), vehicle: saline 102 % of control | dose: 80.0 mg/kg/injection, schedule: Q01DX001 (ip), vehicle: saline 98 % of control

O=c1n(-c2ccccc2)c(=O)n(-c2ccccc2)c(=O)n1-c1ccccc1
inactive: [12] 107 % of control | [9] 89 % of control | [13] 102 % of control | [14] 94 % of control | [15] 115 % of control | [11] 104 % of control

NC(=O)c1ccc(Cl)c([N+](=O)[O-])c1
inactive: [9] 110 % of control | [14] 109 % of control

C[N+](C)(C)CCOC(=O)c1ccccc1CCl
inactive: [6] 98 % of control | [7] 102 % of control

COC(=O)C(=O)CC(=O)c1cccc(OC)c1
inactive: dose: 25.0 mg/kg/injection, schedule: Q04DX002 (ip), vehicle: Klucel (hydroxypropylcellulose) (HPC) 93 % of control | dose: 50.0 mg/kg/injection, schedule: Q04DX002 (ip), vehicle: Klucel (hydroxypropylcellulose) (HPC) 100 % of control | dose: 100.0 mg/kg/injection, schedule: Q04DX002 (ip), vehicle: Klucel (hydroxypropylcellulose) (HPC) 107 % of control and 123 % of control | dose: 200.0 mg/kg/injection, schedule: Q04DX002 (ip), vehicle: Klucel (hydroxypropylcellulose) (HPC) 93 % of control and 100 % of control | dose: 400.0 mg/kg/injection, schedule: Q04DX002 (ip), vehicle: Klucel (hydroxypropylcellulose) (HPC) 103 % of control

CCCCCCCOc1ccc(C2=C(c3ccccc3)C(=O)C(c3ccccc3)=C2c2ccccc2)cc1
inactive: [16] 100 % of control | [17] 100 % of control | [18] 94 % of control

COC1CC2c3ccccc3C1C(C)=[N+]2C (stereo not given)
inactive: dose: 50.0 mg/kg/injection, schedule: Q01DX009 (ip), vehicle: saline 97 % of control | [1] 101 % of control | [2] 102 % of control | [3] 100 % of control | [4] 97 % of control | [5] 102 % of control

CCOC(=O)N1CCN2C(=O)N(CC)CCC2C1 (stereo not given)
inactive: [12] 93 % of control | [13] 93 % of control | [15] 94 % of control

O=C(Nc1ccc([N+](=O)[O-])cc1Cl)c1ccc(C(=O)Nc2ccc([N+](=O)[O-])cc2Cl)cc1
inactive: [12] 96 % of control | [13] 94 % of control | [15] 91 % of control

COc1ccccc1CC(C)(C)O
inactive: dose: 50.0 mg/kg/injection, schedule: Q01DX009 (ip), vehicle: saline with Tween-80 98 % of control | dose: 100.0 mg/kg/injection, schedule: Q01DX009 (ip), vehicle: saline with Tween-80 95 % of control | dose: 200.0 mg/kg/injection, schedule: Q01DX009 (ip), vehicle: saline with Tween-80 101 % of control

C=CCC(CC=C)(C(N)=O)c1ccc(OC)cc1
inactive: [16] 100 % of control | [17] 97 % of control | [18] 111 % of control

CCCCCCCCCCCCSc1ccc2ccccc2c1
inactive: [8] 87 % of control | [10] 92 % of control

Cc1cc2oc(/C=N\Nc3nc4ccccc4s3)c(C)c2cc1C
inactive: dose: 100.0 mg/kg/injection, schedule: Q01DX009 (ip), vehicle: Klucel (hydroxypropylcellulose) (HPC) 94 % of control | dose: 200.0 mg/kg/injection, schedule: Q01DX009 (ip), vehicle: Klucel (hydroxypropylcellulose) (HPC) 96 % of control | dose: 400.0 mg/kg/injection, schedule: Q01DX009 (ip), vehicle: Klucel (hydroxypropylcellulose) (HPC) 108 % of control

O=[N+]([O-])c1ccc(/C=C/C2OCCO2)cc1
inactive: dose: 50.0 mg/kg/injection, schedule: Q01DX001 (ip), vehicle: saline 98 % of control | [12] 96 % of control | [13] 101 % of control

CC1CCC2C(C)C3C(CC4C5CC=C6CC(OC7OC(CO)C(O)C(OC8OC(CO)C(O)C(O)C8O)C7OC7OC(C)C(O)C(O)C7O)CCC6(C)C5CCC43C)N2C1 (stereo not given)
inactive: dose: 12.5 mg/kg/injection, schedule: Q01DX015 (sc), vehicle: steriod suspending solution 101 % of control | dose: 25.0 mg/kg/injection, schedule: Q01DX015 (sc), vehicle: steriod suspending solution 98 % of control | dose: 50.0 mg/kg/injection, schedule: Q01DX015 (sc), vehicle: steriod suspending solution 95 % of control | dose: 100.0 mg/kg/injection, schedule: Q01DX001 (sc), vehicle: steriod suspending solution 100 % of control | dose: 100.0 mg/kg/injection, schedule: Q01DX015 (sc), vehicle: steriod suspending solution 101 % of control | dose: 200.0 mg/kg/injection, schedule: Q01DX001 (sc), vehicle: steriod suspending solution 105 % of control | dose: 400.0 mg/kg/injection, schedule: Q01DX001 (sc), vehicle: steriod suspending solution 103 % of control

CN=C(NN)NCCO
inactive: dose: 175.0 mg/kg/injection, schedule: Q01DX001 (ip), vehicle: saline 96 % of control | dose: 265.0 mg/kg/injection, schedule: Q01DX001 (ip), vehicle: saline 96 % of control | [15] 110 % of control | dose: 600.0 mg/kg/injection, schedule: Q01DX001 (ip), vehicle: saline 98 % of control

COc1ccc(C(C)=O)cc1
inactive: dose: 100.0 mg/kg/injection, schedule: Q04DX002 (ip), vehicle: saline + alcohol 92 % of control | dose: 200.0 mg/kg/injection, schedule: Q04DX002 (ip), vehicle: saline + alcohol 96 % of control | dose: 400.0 mg/kg/injection, schedule: Q04DX002 (ip), vehicle: saline + alcohol 92 % of control

COc1ccc(CCN2CCCC2C(=O)O)cc1OC (stereo not given)
inactive: [2] 96 % of control | [4] 94 % of control | [5] 100 % of control

NC(=O)c1cc(=O)n(C2OC(CO)C(O)C2O)c2ncnc(N)c12 (stereo not given)
inactive: dose: 12.5 mg/kg/injection, schedule: Q01DX005 (ip), vehicle: water 104 % of control | dose: 25.0 mg/kg/injection, schedule: Q01DX005 (ip), vehicle: water 90 % of control | dose: 50.0 mg/kg/injection, schedule: Q01DX005 (ip), vehicle: water 95 % of control | dose: 100.0 mg/kg/injection, schedule: Q01DX005 (ip), vehicle: water 98 % of control | dose: 200.0 mg/kg/injection, schedule: Q01DX005 (ip), vehicle: water 95 % of control

Source: PubChem BioAssay AID248 (DTP/NCI, 2004)
